# Values of other authors, collected in patent US11963942B2, “Oral taxane compositions and methods” (Athenex HK Innovative Limited, priority 2015, dated 2024).
# Target: MDR1 (ABCB1) (Homo sapiens, UniProt P08183)
# Conditions: Kwak et al., Eur. J. Pharm. 627, 92-98 (2010)
# Sequence of MDR1 (ABCB1) (P08183 whole entry, species assumed): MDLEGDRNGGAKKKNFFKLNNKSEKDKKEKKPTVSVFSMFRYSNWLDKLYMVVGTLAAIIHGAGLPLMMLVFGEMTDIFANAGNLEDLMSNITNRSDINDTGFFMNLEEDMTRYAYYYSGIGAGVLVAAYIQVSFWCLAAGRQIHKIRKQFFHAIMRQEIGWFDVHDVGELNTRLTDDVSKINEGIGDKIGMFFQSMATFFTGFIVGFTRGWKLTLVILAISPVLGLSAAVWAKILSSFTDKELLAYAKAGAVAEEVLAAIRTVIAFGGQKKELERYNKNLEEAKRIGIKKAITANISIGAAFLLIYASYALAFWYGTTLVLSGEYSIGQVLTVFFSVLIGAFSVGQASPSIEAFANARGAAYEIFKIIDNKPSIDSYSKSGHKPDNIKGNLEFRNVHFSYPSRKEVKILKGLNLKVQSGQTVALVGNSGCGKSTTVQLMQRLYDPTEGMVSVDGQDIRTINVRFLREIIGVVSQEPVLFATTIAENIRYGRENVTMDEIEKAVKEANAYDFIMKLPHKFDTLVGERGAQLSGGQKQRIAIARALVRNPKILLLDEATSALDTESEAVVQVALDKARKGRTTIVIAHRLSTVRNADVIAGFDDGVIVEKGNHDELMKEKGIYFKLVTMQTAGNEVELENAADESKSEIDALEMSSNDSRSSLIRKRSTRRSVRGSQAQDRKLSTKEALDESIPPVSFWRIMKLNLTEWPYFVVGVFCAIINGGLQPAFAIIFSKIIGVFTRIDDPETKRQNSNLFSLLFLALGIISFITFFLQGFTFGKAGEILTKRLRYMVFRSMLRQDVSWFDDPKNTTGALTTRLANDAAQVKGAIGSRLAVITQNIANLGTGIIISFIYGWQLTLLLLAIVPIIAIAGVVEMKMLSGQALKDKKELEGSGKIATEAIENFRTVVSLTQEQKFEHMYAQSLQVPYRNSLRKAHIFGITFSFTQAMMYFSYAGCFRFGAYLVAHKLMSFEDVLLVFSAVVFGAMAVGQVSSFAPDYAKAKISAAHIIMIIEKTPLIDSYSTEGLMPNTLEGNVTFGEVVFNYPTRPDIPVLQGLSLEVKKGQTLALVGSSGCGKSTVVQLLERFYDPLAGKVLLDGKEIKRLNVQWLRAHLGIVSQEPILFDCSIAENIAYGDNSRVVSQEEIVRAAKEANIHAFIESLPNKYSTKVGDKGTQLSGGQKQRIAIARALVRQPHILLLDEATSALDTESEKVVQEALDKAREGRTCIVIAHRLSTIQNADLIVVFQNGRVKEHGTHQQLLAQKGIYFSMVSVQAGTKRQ
smiles,measurement,value
"COc1cc2c(cc1OC)CN(CCc1ccc(-n3nnc(-c4cc(OC)c(OC)cc4NC(=O)c4cc(=O)c5ccccc5o4)n3)cc1)CC2 [HM30181, 4-oxo-4H-chromene-2-carboxylic acid [2-(2-(4-[2-(6,7-dimethoxy-3,4-dihydro-1H-isoquinolin-2-yl)-ethyl]-phenyl)-2H-tetrazol-5-yl)-4,5-dimethoxy-phenyl]-amide]",potency compared with cyclosporine A,more potent than cyclosporine A
